Data: patent US20250313572A1, “MACROCYCLIC MCL-1 INHIBITORS AND METHODS OF USE” (AbbVie Inc., priority 2017, published 2025)
Read-outs that look alike come from different tables or passages of the source.

Key:
[1] = system: NCI-H929 human multiple myeloma tumor cell line; experiment: NCI-H929 cell viability assay (CellTiter-Glo, 24 hours); format: cell-based
GST-MCL-1 = GST-MCL-1 (Homo sapiens, UniProt Q07820); experiment: TR-FRET MCL-1 binding assay (competition with probe F-Bak)
Method in brief: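 Displacement of F-Bak from GST-MCL-1 is detected by time-resolved FRET with a Tb-labelled anti-GST antibody, with excitation 340/35 nm and emission 520/525 and 495/510 nm, after 2 hours at room temperature. Compounds were titrated in 11 three-fold steps starting at 25 μM final, in buffer alone or in 10% HS.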

[2] = system: AMO-1 human multiple myeloma tumor cell line; experiment: AMO-1 cell viability assay (CellTiter-Glo, 24 hours); format: cell-based
Description: Each concentration was tested in duplicate at least 3 independent times. A luminescent signal proportional to the number of viable cells following 24 hours of compound treatment was determined using the CellTiter-Glo® Luminescent Cell Viability Assay according to the manufacturer's recommendations (Promega Corp., Madison, WI). The plates were read in a Perkin Elmer Envision using a Luminescence protocol. To generate dose response curves the data is normalized to percent viability by setting the averages of the staurosporine (10 μM) and DMSO only control wells to 0% and 100% viability respectively.

[3] = Homo sapiens, NCI-H929, 24 h, read-out: H929 Viability IC50 (μM, 10% FBS), 10% FBS, 24 hours of compound treatment
[4] = MCL-1 Binding Ki (nM, 10% HS), in the presence of 10% HS (human serum)
[5] = without HS, read-out: MCL-1 Binding Ki
[6] = Homo sapiens, AMO1, 24 h, read-out: AMO-1 Viability IC50 (μM, 10% FBS), 10% FBS, 24 hours of compound treatment

Chain of GST-MCL-1 (Q07820 whole entry): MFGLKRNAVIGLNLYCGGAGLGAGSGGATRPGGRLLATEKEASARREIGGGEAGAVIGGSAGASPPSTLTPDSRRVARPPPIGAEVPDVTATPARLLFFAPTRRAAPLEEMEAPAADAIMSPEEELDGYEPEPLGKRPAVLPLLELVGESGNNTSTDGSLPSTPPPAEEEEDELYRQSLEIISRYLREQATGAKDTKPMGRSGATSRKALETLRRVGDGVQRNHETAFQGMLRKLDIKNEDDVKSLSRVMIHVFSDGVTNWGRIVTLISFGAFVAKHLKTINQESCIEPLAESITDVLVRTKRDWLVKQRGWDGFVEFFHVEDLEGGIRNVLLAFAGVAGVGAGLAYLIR

Structure (SMILES)	IC50 [1, 3] [µM]	Ki (GST-MCL-1; [4]) [nM]	Ki (GST-MCL-1; [5]) [nM]	IC50 [2, 6] [µM]	IC50 ([1]; read-out: H929 Viability IC50 (μM, 10% FBS), 10% FBS, 24 hours of compound treatment) [µM]	IC50 ([2]; read-out: AMO-1 Viability IC50 (μM, 10% FBS), 10% FBS, 24 hours of compound treatment) [µM]
COCCOCCOCCOCc1ccc(-c2nccc(COc3ccc4cc3C[C@H](C(=O)O)Oc3ncnc5sc(-c6ccc(F)cc6)c(c35)-c3c(C)c(Cl)c(c(Cl)c3C)O[C@H](CN3CCN(C)CC3)CO4)n2)c(OCCOCCOCCOC)c1 [Example 153, (7R,16R)-19,23-dichloro-1-(4-fluorophenyl)-10-({2-[2-{2-[2-(2-methoxyethoxy)ethoxy]ethoxy}-4-(2,5,8,11-tetraoxadodecan-1-yl)phenyl]pyrimidin-4-yl}methoxy)-20,22-dimethyl-16-[(4-methylpiperazin-1-yl)methyl]-7,8,15,16-tetrahydro-18,21-etheno-13,9-(metheno)-6,14,17-trioxa-2-thia-3,5-diazacyclononadeca[1,2,3-cd]indene-7-carboxylic Acid]	0.00688	0.023	0.001	0.00728	–	–
COC[C@H](COc1ccc(-c2nccc(COc3ccc4cc3C[C@H](C(=O)O)Oc3ncnc5sc(-c6ccc(F)cc6)c(c35)-c3c(C)c(Cl)c(c(Cl)c3C)O[C@H](CN3CCN(C)CC3)CO4)n2)cc1)OC [Example 137, (7R,16R)-19,23-dichloro-10-[(2-{4-[(2R)-2,3-dimethoxypropoxy]phenyl}pyrimidin-4-yl)methoxy]-1-(4-fluorophenyl)-20,22-dimethyl-16-[(4-methylpiperazin-1-yl)methyl]-7,8,15,16-tetrahydro-18,21-etheno-9,13-(metheno)-6,14,17-trioxa-2-thia-3,5-diazacyclononadeca[1,2,3-cd]indene-7-carboxylic acid]	0.000286	0.999	0.031	0.000394	–	–
Cc1c(Cl)c2c(Cl)c(C)c1-c1c(-c3ccc(F)cc3)sc3ncnc(c13)O[C@@H](C(=O)O)Cc1cc(ccc1OCc1ccnc(N3CCC(C)(CC(=O)O)CC3)n1)OC[C@@H](CN1CCN(C)CC1)O2 [Example 41, (7R,16R)-10-({2-[4-(carboxymethyl)-4-methylpiperidin-1-yl]pyrimidin-4-yl}methoxy)-19,23-dichloro-1-(4-fluorophenyl)-20,22-dimethyl-16-[(4-methylpiperazin-1-yl)methyl]-7,8,15,16-tetrahydro-18,21-etheno-13,9-(metheno)-6,14,17-trioxa-2-thia-3,5-diazacyclononadeca[1,2,3-cd]indene-7-carboxylic Acid]	0.019	1.05	0.078	0.0159	–	–
COCCOCCOCCOCCOCCOCCOCCOCCOCCOCCOCCNC(=O)c1ccc(-c2nccc(COc3ccc4cc3C[C@H](C(=O)O)Oc3ncnc5sc(-c6ccc(F)cc6)c(c35)-c3c(C)c(Cl)c(c(Cl)c3C)O[C@H](CN3CCN(C)CC3)CO4)n2)cc1 [Example 47, (7R,16R)-19,23-dichloro-1-(4-fluorophenyl)-20,22-dimethyl-16-[(4-methylpiperazin-1-yl)methyl]-10-[(2-{4-[(2,5,8,11,14,17,20,23,26,29,32-undecaoxatetratriacontan-34-yl)carbamoyl]phenyl}pyrimidin-4-yl)methoxy]-7,8,15,6-tetrahydro-18,21-etheno-13,9-(metheno)-6,14,17-trioxa-2-thia-3,5-diazacyclononadeca[1,2,3-cd]indene-7-carboxylic Acid]	0.0205	3.12	0.018	0.0182	–	–
Cc1c(Cl)c2c(Cl)c(C)c1-c1c(-c3ccc(F)cc3)sc3ncnc(c13)O[C@@H](C(=O)O)Cc1cc(ccc1OCc1ccnc(N3C[C@@H]4[C@H](C3)[C@H]4C(=O)O)n1)OC[C@@H](CN1CCN(C)CC1)O2 [Example 36, (7R,16R)-10-({2-[(1R,5S,6r)-6-carboxy-3-azabicyclo[3,1,0]hexan-3-yl]pyrimidin-4-yl}methoxy)-19,23-dichloro-1-(4-fluorophenyl)-20,22-dimethyl-16-[(4-methylpiperazin-1-yl)methyl]-7,8,15,16-tetrahydro-18,21-etheno-13,9-(metheno)-6,14,17-trioxa-2-thia-3,5-diazacyclononadeca[1,2,3-cd]indene-7-carboxylic Acid]	0.653	1.16	0.144	0.32	–	–
COCCOCCOCCOCCOCCOCC1(F)CC=C(c2nccc(COc3ccc4cc3C[C@H](C(=O)O)Oc3ncnc5sc(-c6ccc(F)cc6)c(c35)-c3c(C)c(Cl)c(c(Cl)c3C)O[C@H](CN3CCN(C)CC3)CO4)n2)CC1 (single isomer, unassigned) [Example 100, (7R,16R)-19,23-dichloro-10-({2-[(4R*)-4-fluoro-4-(2,5,8,11,14,17-hexaoxaoctadecan-1-yl)cyclohex-1-en-1-yl]pyrimidin-4-yl}methoxy)-1-(4-fluorophenyl)-20,22-dimethyl-16-[(4-methylpiperazin-1-yl)methyl]-7,8,15,16-tetrahydro-18,21-etheno-13,9-(metheno)-6,14,17-trioxa-2-thia-3,5-diazacyclononadeca[1,2,3-cd]indene-7-carboxylic Acid]	–	0.176	0.017	–	0.000547	0.00033
Cc1c(Cl)c2c(Cl)c(C)c1-c1c(-c3ccc(F)cc3)sc3ncnc(c13)O[C@@H](C(=O)O)Cc1cc(ccc1OCc1ccnc(N3C[C@H]4C[C@@H](C3)C4(F)F)n1)OC[C@@H](CN1CCN(C)CC1)O2 [Example 172, (7R,16R)-19,23-dichloro-10-({2-[(1R,5S)-6,6-difluoro-3-azabicyclo[3.1.1]heptan-3-yl]pyrimidin-4-yl}methoxy)-1-(4-fluorophenyl)-20,22-dimethyl-16-[(4-methylpiperazin-1-yl)methyl]-7,8,15,16-tetrahydro-18,21-etheno-13,9-(metheno)-6,14,17-trioxa-2-thia-3,5-diazacyclononadeca[1,2,3-cd]indene-7-carboxylic Acid]	0.00524	2.74	0.141	0.000966	–	–
Cc1c(Cl)c2c(Cl)c(C)c1-c1c(-c3ccc(F)cc3)sc3ncnc(c13)O[C@@H](C(=O)O)Cc1cc(ccc1OCc1ccnc(-c3ccc(OC[C@H]4CN(C)CCO4)cc3)n1)OC[C@@H](CN1CCN(C)CC1)O2 [Example 158, (7R,16R)-19,23-dichloro-1-(4-fluorophenyl)-20,22-dimethyl-10-{[2-(4-{[(2R)-4-methylmorpholin-2-yl]methoxy}phenyl)pyrimidin-4-yl]methoxy}-16-[(4-methylpiperazin-1-yl)methyl]-7,8,15,16-tetrahydro-18,21-etheno-9,13-(metheno)-6,14,17-trioxa-2-thia-3,5-diazacyclononadeca[1,2,3-cd]indene-7-carboxylic Acid]	0.00131	0.41	0.003	0.000258	–	–
CO[C@H]1O[C@H](COc2ccc(-c3nccc(COc4ccc5cc4C[C@H](C(=O)O)Oc4ncnc6sc(-c7ccc(F)cc7)c(c46)-c4ccc(c(Cl)c4C)CN(CCN4CCN(C)CC4)C5)n3)cc2)[C@@H](OC)[C@H](OC)[C@@H]1OC [Example 11, methyl 6-O-{4-[4-({[(7R,20S)-7-carboxy-18-chloro-1-(4-fluorophenyl)-19-methyl-15-[2-(4-methylpiperazin-1-yl)ethyl]-7,8,15,16-tetrahydro-14H-17,20-etheno-13,9-(metheno)-6-oxa-2-thia-3,5,15-triazacyclooctadeca[1,2,3-cd]inden-10-yl]oxy}methyl)pyrimidin-2-yl]phenyl}-2,3,4-tri-O-methyl-a-D-mannopyranoside]	0.514	2.34	0.374	0.363	–	–
Cc1c(Cl)c2c(Cl)c(C)c1-c1c(-c3ccc(F)cc3)sc3ncnc(c13)O[C@@H](C(=O)O)Cc1cc(ccc1OCc1ccnc(-c3ccc(OCC4COCCOCCOCCOCCOCCO4)cc3)n1)OC[C@@H](CN1CCN(C)CC1)O2 (stereo partly drawn) [Example 123, (7R,16R)-19,23-dichloro-1-(4-fluorophenyl)-10-[(2-{4-[(1,4,7,10,13,16-hexaoxacyclooctadecan-2-yl)methoxy]phenyl}pyrimidin-4-yl)methoxy]-20,22-dimethyl-16-[(4-methylpiperazin-1-yl)methyl]-7,8,15,16-tetrahydro-18,21-etheno-13,9-(metheno)-6,14,17-trioxa-2-thia-3,5-diazacyclononadeca[1,2,3-cd]indene-7-carboxylic Acid]	0.00467	0.051	0.003	0.00128	–	–
COCCOCCOC[C@]1(F)CC[C@@H](c2nccc(COc3ccc4cc3C[C@H](C(=O)O)Oc3ncnc5sc(-c6ccc(F)cc6)c(c35)-c3c(C)c(Cl)c(c(Cl)c3C)O[C@H](CN3CCN(C)CC3)CO4)n2)CC1 [Example 96, (7R,16R)-19,23-dichloro-10-({2-[(1s,4s)-4-fluoro-4-{[2-(2-methoxyethoxy)ethoxy]methyl}cyclohexyl]pyrimidin-4-yl}methoxy)-1-(4-fluorophenyl)-20,22-dimethyl-16-[(4-methylpiperazin-1-yl)methyl]-7,8,15,16-tetrahydro-18,21-etheno-13,9-(metheno)-6,14,17-trioxa-2-thia-3,5-diazacyclononadeca[1,2,3-cd]indene-7-carboxylic Acid]	0.000259	0.037	0.003	0.000287	–	–
